These results are taken from patent publication US20040235900A1, “Antimicrobial oxazolifinones with improved pharmacokinetic profile and safety advantages” (priority 2002, published 2004).

The assay has as its system MRSA 32. Nature of the assay: Murine assay procedure (systemic MRSA 32 infection, oral treatment). It counts as in vivo, swiss mice. Conditions: Staphylococcus aureus; oral administration, doses 1 hr and 4 hrs after infection; MRSA 32 infected mice; percentage survival on Day 7. As for the experimental part: Oxazolidinone new chemical entities (NCEs) were evaluated for their in vivo efficacy in a murine infection caused by multi-drug resistant, methicillin resistant Staphylococcus aureus strain, referred to as MRSA 32, a clinical isolate obtained from a hospitalised patient. The procedure used for the murine assay is as follows:
Four weeks old swiss mice of 18-22 gm body weight were infected with MRSA 32 strain suspended in 5% Hog gastric Mucin. The infecting dose of bacteria was set at 1-2×10^8 CFU/animal. The infecting dose was administered in 0.5 ml volume injected into peritonial cavity of mice. The treatment with oxazolidinone NCEs was started one hour after infection by administering 100-200 μl of the suspensions of oxazolidinone compounds in 5% Tween 80 by oral gavage. A repeat dose was similarly administered 3 hrs later. Each oxazolidinone NCE was tested at 2-3 different dosages in the range of 2.5 mg/kg to 20 mg/kg. In each dose group 6 mice were included. As an infection control group 12 mice were infected with MRSA 32 strain without giving any treatment. Normally untreated infected mice die within 24 hrs. due to the systemic spread of infection through out the animal body. […] For compounds affording protection of MRSA infected mice, ED50 dosages were calculated on the basis of percentage survival on Day 7 after infection.
The in-vivo ED50 values using the test compounds were determined essentially by the method as described in PCT WO 95/25106, U.S. Pat. No. 5,668,286 and EP 0 750 618 B1.

Consider `CC(=O)NC[C@H]1CN(c2ccc(N3CCC(CC#N)CC3)c(F)c2)C(=O)O1` [Compound 4, (S)-N-{3-[4-(4-cyanomethyl-piperidin-1-yl)-3-fluoro-phenyl]-2-oxo-oxazolidin-5-ylmethyl}-acetamide], for which the ED50 fell in the range of 2.5 to 5 mg/kg.

Usually ED50 stands for the midpoint of the dose-response relation. A lower ED50 goes with an effect at a small dose.
